For one test, the system named is SW1573. The test is described as follows: In vitro combination synergy, SW1573 (Cell-Titer Glo). Conditions: combined with exemplary PRMT5 inhibitor, 120 h, sum of Loewe, Bliss, HSA and ZIP scores. Format: cell-based. The protocol:
(§1) A panel of MTAP-deleted cancer cell lines was assembled to determine whether combining BCL-2 family inhibitors with exemplary PRMT5 inhibitors disclosed herein results in synergistic activity.
(§2) [Assays for determining the synergy score for the pairwise combinations for each cell line were performed in triplicate. 384 or 96-well plates plus additional wells of a separate 384 or 96-well control plate for determining baseline luminescence were seeded with cells of a particular MTAP-deleted cell line in a suitable growth medium for that cell line, e.g., RPMI 1640 medium supplemented with 10% FBS and any cell line specific reagents needed for growth. The plates were incubated overnight at 37 °C in a 5% CO2 atmosphere.
(§3) To each of the designated baseline wells, Cell-Titer Glo reagent (CTG; Promega Corporation) was added to each well and the plates were incubated for 20 min shaking at room temperature. Baseline luminescence was quantitated using a BMG ClarioStar multimode plate reader according to the manufacturer's instructions.
(§4) A series of 1000× drug dilutions in 100% DMSO was prepared that includes a 9-point single agent 3-fold dilution of the exemplary PRMT5 inhibitor (of the type described in WO2021/050915) with a top dose of 3000 nM (and a 6-point single agent 5-fold dilution of the BCL-2 family inhibitor with a top dose of 3000 nM as reference standards.
(§5) A 10× intermediate dosing plate was prepared in serum free medium that contains arrayed single agent dilutions of exemplary PRMT5 inhibitor (of the type described in WO2021/050915) and or the BCL-2 family inhibitor. In addition, a matrix of 54 dilution combinations of exemplary PRMT5 inhibitor (of the type described in WO2021/050915) and the BCL-2 family inhibitor was prepared as test samples.
(§6) To each corresponding well of the 384-well plates seeded with the appropriate cell line above, 10× single agent and the 54 combinations of the dose matrix was added and the plates were incubated for 120 hours at 37 °C in 5% CO2 atmosphere. Cell-Titer Glo reagent (CTG) was added to each test well, the plates were incubated for 20 min shaking at room temperature, and luminescence was quantitated using a BMG ClarioStar multimode plate reader according to the manufacturer's instructions. To normalize test samples, the determined baseline luminescence was subtracted from each test sample prior to analysis and mean values are calculated from replicate samples.
(§7) The output of the data from each mathematical model is the assignment of a relative synergy score. The data reported in Table 6 are the aggregate sum of the Loewe additivity, Bliss independence, Highest Single Agent and ZIP synergy scores (“Composite Synergy Score”).

The test system of the next test is H2452. The test is described as follows: In vitro combination synergy, H2452 (Cell-Titer Glo). The format is cell-based. Conditions: combined with exemplary PRMT5 inhibitor, 120 h, sum of Loewe, Bliss, HSA and ZIP scores. How it is done: as §1, §2, §3, §4, §5, §6, §7
A further test relates to RT4. The test is described as follows: In vitro combination synergy, RT4 (Cell-Titer Glo). Format: cell-based. Conditions: combined with exemplary PRMT5 inhibitor, 120 h, sum of Loewe, Bliss, HSA and ZIP scores. The protocol: as §1, §2, §3, §4, §5, §6, §7
The subject of a further test is Mero14. The experiment in a line: In vitro combination synergy, Mero14 (Cell-Titer Glo). Format: cell-based. Conditions: combined with exemplary PRMT5 inhibitor, 120 h, sum of Loewe, Bliss, HSA and ZIP scores. The protocol:
as §1, §2, §3, §4, §5, §6, §7

Another test has as its system H2228. The experiment in a line: In vitro combination synergy, H2228 (Cell-Titer Glo). Conditions: combined with exemplary PRMT5 inhibitor, 120 h, sum of Loewe, Bliss, HSA and ZIP scores. The format is cell-based. The protocol: as §1, §2, §3, §4, §5, §6, §7
The next test deals with HCC4006. The experiment in a line: In vitro combination synergy, HCC4006 (Cell-Titer Glo). The format is cell-based. Conditions: combined with exemplary PRMT5 inhibitor, 120 h, sum of Loewe, Bliss, HSA and ZIP scores. The protocol: as §1, §2, §3, §4, §5, §6, §7
Test [1] concerns LU99 xenograft tumors. The experiment in a line: In vivo combination study (LU99 model), Example 1. Further details: species or system female nu/nu mice. The note with it: MRTX1719, ABT-263, ABT-199 each 100 mg/kg PO QD, alone or combined. The source says:
(§8) Immunodeficient female nu/nu mice were implanted with 5×10^6 LU99 cancer cells in 50% Matrigel. Tumor volume measurements were collected using calipers and determined utilizing the formula 0.5×L×W^2 in which L refers to length and W refers to width of each tumor. When tumors reached approximately 125-150 mm^3, animals were randomized to receive A) vehicle, B) a PRMT5 inhibitor, C) navitoclax (ABT-263), D) venetoclax (ABT-199), E) A-1331852, F) the PRMT5 inhibitor and navitoclax, F) the PRMT5 inhibitor and venetoclax, or G) the PRMT5 inhibitor and A-1331852 all administered orally (PO) with the indicated dose and schedule for 20-34 days. Tumor volume was measured twice a week (n=5/treatment group). Average tumor volume and standard error of the mean was calculated and plotted at each study day using GraphPad Prism.
The PRMT5 inhibitor was MRTX1719 administered at 100 mg/kg once a day (QD). MRTX1719 is (2M)-2-(4-(4-(aminomethyl)-1-oxo-1,2-dihydrophthalazin-6-yl)-1-methyl-1H-pyrazol-5-yl)-4-chloro-6-cyclopropoxy-3-fluorobenzonitrile, disclosed as Example 16-8 at p. 307 of the international patent publication No. WO 2021/050915 A1, published 18 Mar. 2021, incorporated by reference in its entirety.
The BCL-2 family inhibitors used in this example, ABT-199 (venetoclax) and ABT-263 (navitoclax), were administered at 100 mg/kg once a day (QD) and supplied by Selleck Chemicals (Houston, TX).

In the next test the test system is Miapaca2. The test is described as follows: In vitro combination synergy, Miapaca2 (Cell-Titer Glo). Format: cell-based. The note with it: combined with exemplary PRMT5 inhibitor, 120 h, sum of Loewe, Bliss, HSA and ZIP scores. The protocol: as §1, §2, §3, §4, §5, §6, §7
In the next test the test system is A549. The test is described as follows: In vitro combination synergy, A549 (Cell-Titer Glo). Format: cell-based. The note with it: combined with exemplary PRMT5 inhibitor, 120 h, sum of Loewe, Bliss, HSA and ZIP scores. How it is done:
as §1, §2, §3, §4, §5, §6, §7

Another test concerns H1437. The test is described as follows: In vitro combination synergy, H1437 (Cell-Titer Glo). The note with it: combined with exemplary PRMT5 inhibitor, 120 h, sum of Loewe, Bliss, HSA and ZIP scores. The format is cell-based. The protocol:
as §1, §2, §3, §4, §5, §6, §7

Another test relates to SU8686. The experiment in a line: In vitro combination synergy, SU8686 (Cell-Titer Glo). The format is cell-based. The note with it: combined with exemplary PRMT5 inhibitor, 120 h, sum of Loewe, Bliss, HSA and ZIP scores. How it is done: as §1, §2, §3, §4, §5, §6, §7
The test system of another test is Mero83. The experiment in a line: In vitro combination synergy, Mero83 (Cell-Titer Glo). Format: cell-based. The note with it: combined with exemplary PRMT5 inhibitor, 120 h, sum of Loewe, Bliss, HSA and ZIP scores. How it is done: as §1, §2, §3, §4, §5, §6, §7
The test system of the next test is LU99. The test is described as follows: In vitro combination synergy, LU99 (Cell-Titer Glo). The format is cell-based. The note with it: combined with exemplary PRMT5 inhibitor, 120 h, sum of Loewe, Bliss, HSA and ZIP scores. How it is done: as §1, §2, §3, §4, §5, §6, §7
For test [2], the system named is LU99 xenograft tumors. The test is described as follows: In vivo combination study (LU99 model), Example 4. Further details: species or system female nu/nu mice. The note with it: MRTX1719 100 mg/kg PO QD, A-1331852 25 mg/kg PO BID, alone or combined.
Description: as §8
Example 4 was carried out according to the in vivo study procedure described above in Example 1.
The PRMT5 inhibitor was MRTX1719 administered at 100 mg/kg once a day (QD). MRTX1719 is (2M)-2-(4-(4-(aminomethyl)-1-oxo-1,2-dihydrophthalazin-6-yl)-1-methyl-1H-pyrazol-5-yl)-4-chloro-6-cyclopropoxy-3-fluorobenzonitrile, disclosed as Example 16-8 at p. 307 of the international patent publication No. WO 2021/050915 A1, published 18 Mar. 2021, incorporated by reference in its entirety. The BCL-2 family inhibitor, A-1331852 was administered at 25 mg/kg twice a day (BID) and synthesized at Wuxi AppTec (Wuhan, China).

For the compound `CC1(C)CCC(c2ccc(Cl)cc2)=C(CN2CCN(c3ccc(C(=O)NS(=O)(=O)c4ccc(N[C@H](CCN5CCOCC5)CSc5ccccc5)c(S(=O)(=O)C(F)(F)F)c4)cc3)CC2)C1` [ABT-263, navitoclax], the “Composite Synergy Score” value in the test with SW1573 is reported as 14; with H2452, −20; with RT4, 24; in the test on Mero14, 18; with H2228 it was 24; in the test with HCC4006 it was 23. Besides, the “Composite Synergy Score” value in the test on Miapaca2 is reported as 16; in the test with A549, 23; in the test with H1437, 13; with SU8686, 12; in the test on Mero83, −26; in the test on LU99, 41. Besides, the “Average Tumor Volume” value is 236 mm^3 in the test on LU99 xenograft tumors [1] (day 3); 359 mm^3 in the test with LU99 xenograft tumors [1] (day 6); 558 mm^3 in the test with LU99 xenograft tumors [1] (day 10); 737 mm^3 in the test with LU99 xenograft tumors [1] (day 13); 1042 mm^3 with LU99 xenograft tumors [1] (day 17); 1237 mm^3 with LU99 xenograft tumors [1] (day 20). For the same compound, in the test on LU99 xenograft tumors [1] (day −1), the “Average Tumor Volume” value is on record as 153 mm^3.

For the compound `Cc1c(-c2ccc(N3CCc4cccc(C(=O)Nc5nc6ccccc6s5)c4C3)nc2C(=O)O)cnn1CC12CC3CC(CC(C3)C1)C2` [A-1331852], the “Composite Synergy Score” value is listed as 50 in the test on SW1573; 42 in the test on H2452; 40 in the test with RT4; 28 in the test with Mero14; 36 in the test on H2228; 63 in the test with HCC4006. Further, the “Composite Synergy Score” value in the test on Miapaca2 is reported as 70; in the test with A549, 42; in the test on H1437, 36; in the test with SU8686, 50; in the test on Mero83, 11; with LU99 it was 64. Also, the “Average Tumor Volume” value with LU99 xenograft tumors [2] (day 2) is 217 mm^3; in the test on LU99 xenograft tumors [2] (day 6), 393 mm^3; in the test with LU99 xenograft tumors [2] (day 9), 547 mm^3; in the test on LU99 xenograft tumors [2] (day 14), 960 mm^3; in the test on LU99 xenograft tumors [2] (day 16), 1228 mm^3; with LU99 xenograft tumors [2] (day 20), 1331 mm^3. Moreover, the “Average Tumor Volume” value with LU99 xenograft tumors [2] (day −1) worked out at 137 mm^3.

As to `Cn1ncc(-c2ccc3c(=O)[nH]nc(CN)c3c2)c1-c1c(F)c(Cl)cc(OC2CC2)c1C#N` (atropisomer, axis not shown; (M)) [MRTX1719, (2M)-2-(4-(4-(aminomethyl)-1-oxo-1,2-dihydrophthalazin-6-yl)-1-methyl-1H-pyrazol-5-yl)-4-chloro-6-cyclopropoxy-3-fluorobenzonitrile], the “Average Tumor Volume” value stood at 215 mm^3 with LU99 xenograft tumors [1] (day 3); 236 mm^3 with LU99 xenograft tumors [1] (day 6); 236 mm^3 with LU99 xenograft tumors [1] (day 10); 260 mm^3 in the test with LU99 xenograft tumors [1] (day 13); 282 mm^3 in the test with LU99 xenograft tumors [1] (day 17); 302 mm^3 in the test with LU99 xenograft tumors [1] (day 20). For the same compound, the “Average Tumor Volume” value in the test with LU99 xenograft tumors [1] (day −1) is 153 mm^3; with LU99 xenograft tumors [2] (day 2) it was 221 mm^3; with LU99 xenograft tumors [2] (day 6), 229 mm^3; in the test on LU99 xenograft tumors [2] (day 9) it was 232 mm^3; in the test on LU99 xenograft tumors [2] (day 14), 268 mm^3; in the test with LU99 xenograft tumors [2] (day 16), 296 mm^3. In addition, the figures for the “Average Tumor Volume” value in the test on LU99 xenograft tumors [2] (day 20) and with LU99 xenograft tumors [2] (day −1) were 360 mm^3 and 137 mm^3, respectively.
